Data reported in ChEMBL document CHEMBL2074101, “Cloning and characterization of a rat H+/peptide cotransporter mediating absorption of beta-lactam antibiotics in the intestine and kidney” (J Pharmacol Exp Ther, 1995).

Columns and labels:
Assay type in all cases: functional, cell-based
Details in all cases: Oocyte
[1] = target: T1, Solute carrier family 15 member 1 (Rattus norvegicus) (UniProt P51574); experiment: TP_TRANSPORTER: inhibition of Cephradine uptake (Cephradine: 3000 uM, Bestatin: 10000 uM) in Xenopus laevis oocytes
T1 sequence (whole entry): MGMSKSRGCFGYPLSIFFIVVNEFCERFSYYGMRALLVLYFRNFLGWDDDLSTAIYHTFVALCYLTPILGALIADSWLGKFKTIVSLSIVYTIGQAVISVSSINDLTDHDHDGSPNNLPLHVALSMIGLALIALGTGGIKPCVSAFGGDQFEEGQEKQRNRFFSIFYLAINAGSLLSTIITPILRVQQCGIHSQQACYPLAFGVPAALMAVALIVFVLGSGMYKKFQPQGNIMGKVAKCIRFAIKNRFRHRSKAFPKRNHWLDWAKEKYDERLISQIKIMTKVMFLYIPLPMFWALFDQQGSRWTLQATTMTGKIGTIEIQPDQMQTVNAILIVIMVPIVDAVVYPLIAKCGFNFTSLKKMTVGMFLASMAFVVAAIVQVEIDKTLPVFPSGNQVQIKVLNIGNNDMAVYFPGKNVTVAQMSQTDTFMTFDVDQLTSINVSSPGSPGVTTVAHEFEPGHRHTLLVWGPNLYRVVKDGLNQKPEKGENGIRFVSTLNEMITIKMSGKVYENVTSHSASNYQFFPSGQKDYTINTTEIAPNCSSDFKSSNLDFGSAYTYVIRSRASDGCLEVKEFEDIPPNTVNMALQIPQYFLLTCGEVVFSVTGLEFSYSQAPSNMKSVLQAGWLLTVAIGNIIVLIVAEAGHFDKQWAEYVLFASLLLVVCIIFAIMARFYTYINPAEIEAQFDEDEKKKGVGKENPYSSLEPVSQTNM

[2] = target: T1, Solute carrier family 15 member 1 (Rattus norvegicus); experiment: TP_TRANSPORTER: inhibition of Ceftibuten uptake (Ceftibuten: 1000 uM, Bestatin: 10000 uM) in Xenopus laevis oocytes
[3] = target: T1, Solute carrier family 15 member 1 (Rattus norvegicus); experiment: TP_TRANSPORTER: inhibition of Cephradine uptake (Cephradine: 3000 uM, Carnosine: 10000 uM) in Xenopus laevis oocytes
[4] = target: T1, Solute carrier family 15 member 1 (Rattus norvegicus); experiment: TP_TRANSPORTER: inhibition of Ceftibuten uptake (Ceftibuten: 1000 uM, Carnosine: 10000 uM) in Xenopus laevis oocytes
[5] = target: T1, Solute carrier family 15 member 1 (Rattus norvegicus); experiment: TP_TRANSPORTER: inhibition of Cephradine uptake (Cephradine: 3000 uM, Ceftibuten: 10000 uM) in Xenopus laevis oocytes
[6] = target: T1, Solute carrier family 15 member 1 (Rattus norvegicus); experiment: TP_TRANSPORTER: inhibition of Cephradine uptake (Cephradine: 3000 uM, Gly-Leu: 10000 uM) in Xenopus laevis oocytes
[7] = target: T1, Solute carrier family 15 member 1 (Rattus norvegicus); experiment: TP_TRANSPORTER: inhibition of Ceftibuten uptake (Ceftibuten: 1000 uM, Gly-Leu: 10000 uM) in Xenopus laevis oocytes
[8] = target: T1, Solute carrier family 15 member 1 (Rattus norvegicus); experiment: TP_TRANSPORTER: inhibition of Ceftibuten uptake (Ceftibuten: 1000 uM, Cephradine: 10000 uM) in Xenopus laevis oocytes
[9] = substrate: CC1=C(C(=O)O)N2C(=O)[C@@H](NC(=O)[C@H](N)C3=CCC=CC3)[C@H]2SC1; experiment: (§1) TP_TRANSPORTER: uptake in Xenopus laevis oocytes
[10] = substrate: Nc1nc(/C(=C/CC(=O)O)C(=O)N[C@@H]2C(=O)N3C(C(=O)O)=CCS[C@H]23)cs1; experiment: as §1

CC(C)C[C@H](NC(=O)[C@@H](O)[C@H](N)Cc1ccccc1)C(=O)O
Activity [1]: inhibitor [+]
Activity [2]: inhibitor [+]

NCCC(=O)N[C@@H](Cc1c[nH]cn1)C(=O)O
Activity [3]: inhibitor [+]
Activity [4]: inhibitor [+]

Nc1nc(/C(=C/CC(=O)O)C(=O)N[C@@H]2C(=O)N3C(C(=O)O)=CCS[C@H]23)cs1
Activity [5]: inhibitor [+]

CC(C)C[C@H](NC(=O)CN)C(=O)O
Activity [6]: inhibitor [+]
Activity [7]: inhibitor [+]

CC1=C(C(=O)O)N2C(=O)[C@@H](NC(=O)[C@H](N)C3=CCC=CC3)[C@H]2SC1
Activity [8]: is not an inhibitor [-]

B1: Solute carrier family 15 member 1 (Rattus norvegicus), P51574 (protein)
chain: MGMSKSRGCFGYPLSIFFIVVNEFCERFSYYGMRALLVLYFRNFLGWDDDLSTAIYHTFVALCYLTPILGALIADSWLGKFKTIVSLSIVYTIGQAVISVSSINDLTDHDHDGSPNNLPLHVALSMIGLALIALGTGGIKPCVSAFGGDQFEEGQEKQRNRFFSIFYLAINAGSLLSTIITPILRVQQCGIHSQQACYPLAFGVPAALMAVALIVFVLGSGMYKKFQPQGNIMGKVAKCIRFAIKNRFRHRSKAFPKRNHWLDWAKEKYDERLISQIKIMTKVMFLYIPLPMFWALFDQQGSRWTLQATTMTGKIGTIEIQPDQMQTVNAILIVIMVPIVDAVVYPLIAKCGFNFTSLKKMTVGMFLASMAFVVAAIVQVEIDKTLPVFPSGNQVQIKVLNIGNNDMAVYFPGKNVTVAQMSQTDTFMTFDVDQLTSINVSSPGSPGVTTVAHEFEPGHRHTLLVWGPNLYRVVKDGLNQKPEKGENGIRFVSTLNEMITIKMSGKVYENVTSHSASNYQFFPSGQKDYTINTTEIAPNCSSDFKSSNLDFGSAYTYVIRSRASDGCLEVKEFEDIPPNTVNMALQIPQYFLLTCGEVVFSVTGLEFSYSQAPSNMKSVLQAGWLLTVAIGNIIVLIVAEAGHFDKQWAEYVLFASLLLVVCIIFAIMARFYTYINPAEIEAQFDEDEKKKGVGKENPYSSLEPVSQTNM
Km [9]: 12.4 mM
Km [10]: 0.9 mM
